# Key:
# Type in all cases: cell-based, human
# DDIT3 promoter (−1507C) = assay: Luciferase reporter activity in SK-N-MC cells stably transfected with pXP2 DDIT3(−1507C)-Luciferase (C1 cell line); settings: −1507C construct, stable SK-N-MC cells, 15 hours of treatment; ± standard error of the mean
# Method: (§1) The cell lysate was assayed for the β-galactosidase activity, as an indicator of the transfection efficiency, and luciferase activity, as an indicator of the transcriptional activity of the promoters: • Assay of β-galactosidase activity. 50 μl of cell lysate are incubated in an E.L.I.S.A. plate with 50 μl of enzyme substrate (2 mM MgCl2—Merck—, 100 mM β-mercaptoethanol—Sigma—, 120 mM Na2HPO4, 80 mM NaH2PO4—both from Carlo Erba—and 1.33 mg/ml of ONPG (2-Nitrophenyl-β-D-galactopyranoside)—Sigma—). This reaction generates a colored product the concentration of which is measured as absorbance at 415 nm in an E.L.I.S.A. plate reader (Model 680, from BioRad). • Assay of luciferase activity. 40 μl of cell lysate are measured adding 100 μl of reagent of the enzyme (20 mM Tricin, […], 33.3 mM DTT, 270 μM Coenzyme A —all from Sigma—, 2.67 mM MgSO4, 0.1 mM EDTA—both from Merck—, 470 μM Luciferin potassium salt —Promega—and 530 μM ATP—Boehringer Mannheim—); alternatively, the one of the Luciferase Assay System kit—Promega—was used. The luminescence emission is recorded in a Monolight 2010 illuminometer (Analytical Luminescence Laboratory). […]
# (§2) The clones resistant to the antibiotic are isolated by aspiration with an automatic pipette and seeded in an M24 for the expansion thereof. The expression of luciferase is analyzed and the lines having greater luciferase activity are maintained. […]
# DDIT3 promoter (−1507G) = assay: Luciferase reporter activity in SK-N-MC cells stably transfected with pXP2 DDIT3(−1507G)-Luciferase (G7 cell line); settings: −1507G construct, stable SK-N-MC cells, 15 hours of treatment; ± standard error of the mean
# Method: as §1, §2
# DDIT3 promoter = assay: Luciferase reporter activity in SK-N-MC cells transiently transfected with pXP2-DDIT3 constructs; settings: transient transfection, both allelic variants; alteration seen after 6 hours of treatment
# Method: On the day before the transfection 2×10^5 cells per well are seeded in a 24-well plate (M24, from Falcon). 0.7 μg of DNA per well are transfected mixing the plasmids pXP2-DDIT3 and pSV-β-galactosidase in a 1:1 ratio (0.35 μg of pXP2 and 0.35 μg of β-gal) with Lipofectamine Plus (from Life Technologies), following the manufacturer's indications, in a 1:3 DNA:Lipofectamine ratio and allowing the cells to incubate with the plasmid for 5 hours. Twenty-four hours after the transfection the cells are treated to see the response to the stimulus. […]
# as §1, with “50 μl of cell lysate are incubated in an E.L.I.S.A. plate with 50 μl of enzyme substrate (2 mM MgCl2—Merck—, 100 mM β-mercaptoethanol—Sigma—, 120 mM Na2HPO4, 80 mM NaH2PO4—both from Carlo Erba—and 1.33 mg/ml of ONPG (2-Nitrophenyl-β-D-galactopyranoside)—Sigma—).” left out, “used.” for “used. The luminescence emission is recorded in a Monolight 2010 illuminometer (Analytical Luminescence Laboratory).”
substance,measurement,setting,value
Tunicamycin [ERS],Luciferase activity with respect to the non-treated cells (activation of the DDIT3 promoter),DDIT3 promoter (−1507C),4.6 ± 0.4 times
same,Luciferase activity with respect to the non-treated cells (activation of the DDIT3 promoter),DDIT3 promoter (−1507G),3.4 ± 0.3 times
same,Transcriptional activity of the DDIT3 promoter after treatment,DDIT3 promoter,increases significantly
